From patent US20240116985A1, “STAPLED PEPTIDES AND METHODS THEREOF” (priority 2020, published 2024)
Where two headings read alike, the source gives them in different places.

Key:
[1] = molecular target: T1, full-length beta-Catenin (Uniprot ID P35222) (Homo sapiens, UniProt P35222); experiment: Fluorescence polarization IC50 (beta-catenin / 5FAM-TCF4 10-53 competition); type: binding
T1 construct: 10 nM full-length beta-Catenin (Uniprot ID P35222)
T1 sequence (P35222 1-781): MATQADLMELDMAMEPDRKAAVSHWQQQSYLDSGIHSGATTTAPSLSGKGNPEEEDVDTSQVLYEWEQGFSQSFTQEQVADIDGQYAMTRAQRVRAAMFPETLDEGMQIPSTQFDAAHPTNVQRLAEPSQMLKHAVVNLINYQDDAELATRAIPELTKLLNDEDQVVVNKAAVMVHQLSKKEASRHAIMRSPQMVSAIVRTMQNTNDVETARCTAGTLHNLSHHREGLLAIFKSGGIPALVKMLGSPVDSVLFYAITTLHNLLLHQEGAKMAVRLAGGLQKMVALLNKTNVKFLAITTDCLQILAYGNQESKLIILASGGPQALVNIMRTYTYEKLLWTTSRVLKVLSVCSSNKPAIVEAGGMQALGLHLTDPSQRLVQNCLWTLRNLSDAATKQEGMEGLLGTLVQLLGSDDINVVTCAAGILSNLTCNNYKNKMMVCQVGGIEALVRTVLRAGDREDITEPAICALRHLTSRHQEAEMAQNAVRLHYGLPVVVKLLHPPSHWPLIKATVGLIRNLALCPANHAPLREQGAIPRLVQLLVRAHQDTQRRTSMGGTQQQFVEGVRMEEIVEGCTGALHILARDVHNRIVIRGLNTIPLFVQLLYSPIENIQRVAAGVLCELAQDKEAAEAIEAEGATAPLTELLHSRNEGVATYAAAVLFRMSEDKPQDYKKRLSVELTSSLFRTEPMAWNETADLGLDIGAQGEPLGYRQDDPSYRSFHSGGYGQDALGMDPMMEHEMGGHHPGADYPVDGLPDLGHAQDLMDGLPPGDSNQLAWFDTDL

CHI Log D procedure = type: physicochemical; details: for CHI Log D: pH 7.4; for chromatographic logD: pH 7.4, CHI Log D
[2] = Table E2-1, read-out: beta-Catenin FP IC50
[3] = fluorescence polarization, beta-catenin, read-out: FP EC50
[4] = fluorescence polarization, read-out: beta-Catenin FP IC50

SMILES | IC50 [1, 2] [µM] | IC50 [1, 3] [µM] | CHI Log D (CHI Log D procedure) | chromatographic logD (CHI Log D procedure) | IC50 [1, 4] [µM]
CC(=O)N1CCC[C@]12CC=CCCCC1(CCCC=CCCCCCC[C@@](C)(C(=O)N[C@@H](Cc3ccccc3)C(=O)N[C@@H](Cc3c[nH]c4ccccc34)C(N)=O)NC(=O)[C@H](C(C)C)NC(=O)[C@H](Cc3ccccc3)NC(=O)[C@H](C)NC(=O)[C@H](C)NC(=O)[C@H](CC(=O)O)NC(=O)[C@H](CC(=O)O)NC1=O)NC(=O)[C@H](C)NC(=O)[C@H](CC(=O)O)NC2=O (stereo partly drawn) [I-290, Ac-PL3-Asp-Ala-B5-Asp-Asp-Ala-Ala-Phe-Val-S8-Phe-Trp-NH2] | 3.29 | 3.29 | 2.271 | – | –
CC(=O)N1CCC[C@]12CC=CCCCC1(CCCC=CCCCCCC[C@@](C)(C(=O)N[C@@H](Cc3ccccc3)C(=O)N[C@@H](Cc3c[nH]c4ccccc34)C(=O)N[C@@H](CCC(N)=O)C(N)=O)NC(=O)[C@H](C(C)C)NC(=O)[C@H](Cc3cccc(Cl)c3)NC(=O)[C@H](C)NC(=O)[C@H](C)NC(=O)[C@H](CC(=O)O)NC(=O)[C@H](CC(=O)O)NC1=O)NC(=O)[C@H](C)NC(=O)[C@H](CC(=O)O)NC2=O (stereo partly drawn) [I-307, Ac-PL3-Asp-Ala-B5-Asp-Asp-Ala-Ala-3C1F-Val-S8-Phe-Trp-Gln-NH2] | 4.2 | 4.2 | 2.055 | – | –
CC(=O)N1CCC[C@]12CC=CCCCC1(CCCC=CCCCCCC[C@@](C)(C(=O)N[C@@H](Cc3ccccc3)C(=O)N[C@@H](Cc3c[nH]c4ccccc34)C(=O)N[C@@H](CCC(N)=O)C(N)=O)NC(=O)[C@H](C(C)C)NC(=O)[C@H](Cc3ccccc3F)NC(=O)[C@H](C)NC(=O)[C@H](C)NC(=O)[C@H](CC(=O)O)NC(=O)[C@H](CC(=O)O)NC1=O)NC(=O)[C@H](C)NC(=O)[C@H](CC(=O)O)NC2=O (stereo partly drawn) [I-317, Ac-PL3-Asp-Ala-B5-Asp-Asp-Ala-Ala-2FF-Val-S8-Phe-Trp-Gln-NH2] | 5 | – | – | 2.02 | –
CC(=O)N1CCC[C@]12CC=CCCCC1(CCCC=CCCCCCC[C@@](C)(C(=O)N[C@@H](Cc3ccccc3)C(=O)N[C@@H](Cc3csc4ccccc34)C(=O)N[C@@H](CCC(N)=O)C(N)=O)NC(=O)[C@H](C)NC(=O)[C@H](Cc3ccccc3C)NC(=O)[C@H](C)NC(=O)[C@H](C)NC(=O)[C@H](CC(=O)O)NC(=O)[C@H](CC(=O)O)NC1=O)NC(=O)[C@H](C)NC(=O)[C@H](CC(=O)O)NC2=O (stereo partly drawn) [I-366, Ac-PL3-Asp-Ala-B5-Asp-Asp-Ala-Ala-2MeF-Ala-S8-Phe-BztA-Gln-NH2] | 1.44 | 1.44 | 2.084 | – | –
CC(=O)N1CCC[C@]12CC=CCCCC1(CCCC=CCCCCCC[C@@](C)(C(=O)N[C@@H](Cc3ccccc3C)C(=O)N[C@@H](Cc3csc4ccccc34)C(=O)N[C@@H](CCC(N)=O)C(N)=O)NC(=O)[C@H](C)NC(=O)[C@H](Cc3ccccc3)NC(=O)[C@H](C)NC(=O)[C@H](C)NC(=O)[C@H](CC(=O)O)NC(=O)[C@H](CC(=O)O)NC1=O)NC(=O)[C@H](C)NC(=O)[C@H](CC(=O)O)NC2=O (stereo partly drawn) [I-367, Ac-PL3-Asp-Ala-B5-Asp-Asp-Ala-Ala-Phe-Ala-S8-2MeF-BztA-Gln-NH2] | 0.177 | – | – | 2.15 | –
CC(=O)N1CCC[C@]12CC=CCCCC1(CCCC=CCCCCCC[C@@](C)(C(=O)N[C@@H](Cc3ccccc3)C(=O)N[C@@H](Cc3cccc4ccc(F)cc34)C(=O)N[C@@H](CCC(N)=O)C(N)=O)NC(=O)[C@H](C(C)C)NC(=O)[C@H](Cc3ccccc3)NC(=O)[C@H](C)NC(=O)[C@H](C)NC(=O)[C@H](CC(=O)O)NC(=O)[C@H](CC(=O)O)NC1=O)NC(=O)[C@H](C)NC(=O)[C@H](CC(=O)O)NC2=O (stereo partly drawn) [I-368, Ac-PL3-Asp-Ala-B5-Asp-Asp-Ala-Ala-Phe-Val-S8-Phe-7F1NapA-Gln-NH2] | 5 | – | – | 2.17 | –
CC(=O)N1CCC[C@]12CC=CCCCC1(CCCC=CCCCCCC[C@@](C)(C(=O)N[C@@H](Cc3cc(F)cc(F)c3)C(=O)N[C@@H](Cc3csc4ccccc34)C(=O)N[C@@H](CCC(N)=O)C(N)=O)NC(=O)[C@H](C(C)C)NC(=O)[C@H](Cc3ccccc3)NC(=O)[C@H](C)NC(=O)[C@H](C)NC(=O)[C@H](CCC(=O)O)NC(=O)[C@H](CC(=O)O)NC1=O)NC(=O)[C@H](C)NC(=O)[C@H](CC(=O)O)NC2=O (stereo partly drawn) [I-394, Ac-PL3-Asp-Ala-B5-Asp-Glu-Ala-Ala-Phe-Val-S8-35FF-BztA-Gln-NH2] | – | – | – | 3.86 | 5
CC(=O)N1CCC[C@]12CC=CCCCC1(CCCC=CCCCCCC[C@@](C)(C(=O)N[C@@H](Cc3cccc(C)c3)C(=O)N[C@@H](Cc3csc4ccccc34)C(=O)N[C@@H](CCC(N)=O)C(N)=O)NC(=O)[C@H](C(C)C)NC(=O)[C@H](Cc3ccccc3)NC(=O)[C@H](C)NC(=O)[C@H](C)NC(=O)[C@H](CCC(=O)O)NC(=O)[C@H](CC(=O)O)NC1=O)NC(=O)[C@H](C)NC(=O)[C@H](CC(=O)O)NC2=O (stereo partly drawn) [I-395, Ac-PL3-Asp-Ala-B5-Asp-Glu-Ala-Ala-Phe-Val-S8-3MeF-BztA-Gln-NH2] | – | – | – | 4.07 | 5
CC(=O)N1CCC[C@]12CC=CCCCC1(CCCC=CCCCCCC[C@@](C)(C(=O)N[C@@H](Cc3cccc(F)c3)C(=O)N[C@@H](Cc3csc4ccccc34)C(=O)N[C@@H](CCC(N)=O)C(N)=O)NC(=O)[C@H](C(C)C)NC(=O)[C@H](Cc3ccccc3)NC(=O)[C@H](C)NC(=O)[C@H](C)NC(=O)[C@H](Cc3c[nH]cn3)NC(=O)[C@H](CC(=O)O)NC1=O)NC(=O)[C@H](C)NC(=O)[C@H](CC(=O)O)NC2=O (stereo partly drawn) [I-396, Ac-PL3-Asp-Ala-B5-Asp-His-Ala-Ala-Phe-Val-S8-3FF-BztA-Gln-NH2] | – | 3.43 | 2.819 | – | 3.43
CC(=O)N1CCC[C@]12CC=CCCCC1(CCCC=CCCCCCC[C@@](C)(C(=O)N[C@@H](Cc3cccc(F)c3)C(=O)N[C@@H](Cc3csc4ccccc34)C(=O)N[C@@H](CCC(N)=O)C(N)=O)NC(=O)[C@H](C(C)C)NC(=O)[C@H](Cc3ccccc3)NC(=O)[C@H](C)NC(=O)[C@H](C)NC(=O)[C@H](Cc3c[nH]cn3)NC(=O)[C@H](CC(=O)O)NC1=O)NC(=O)[C@H](C)NC(=O)[C@H](CC(=O)O)NC2=O (stereo partly drawn) [I-397, Ac-PL3-Asp-Ala-B5-Asp-His-Ala-Ala-Phe-Val-S8-3FF-BztA-Gln-NH2] | – | 2.23 | 2.828 | – | 2.23
CC(=O)N1CCC[C@]12CC=CCCCC1(CCCC=CCCCCCC[C@@](C)(C(=O)N[C@@H](Cc3cccc(F)c3)C(=O)N[C@@H](Cc3csc4ccccc34)C(=O)N[C@@H](CCC(N)=O)C(N)=O)NC(=O)[C@H](CCC(N)=O)NC(=O)[C@H](Cc3ccccc3)NC(=O)[C@H](C)NC(=O)[C@H](C)NC(=O)[C@H](Cc3c[nH]cn3)NC(=O)[C@H](CC(=O)O)NC1=O)NC(=O)[C@H](C)NC(=O)[C@H](CC(=O)O)NC2=O (stereo partly drawn) [I-399, Ac-PL3-Asp-Ala-B5-Asp-His-Ala-Ala-Phe-Gln-S8-3FF-BztA-Gln-NH2] | – | – | – | 2.52 | 2.5
CC(=O)N1CCC[C@]12CC=CCCCC1(CCCC=CCOC(=O)N(C)CCC[C@@](C)(C(=O)N[C@@H](Cc3cccc(F)c3)C(=O)N[C@@H](Cc3csc4ccccc34)C(=O)N[C@@H](CCC(N)=O)C(N)=O)NC(=O)[C@H](CCC(N)=O)NC(=O)[C@H](Cc3ccccc3)NC(=O)[C@H](C)NC(=O)[C@H](C)NC(=O)[C@H](Cc3c[nH]cn3)NC(=O)[C@H](CC(=O)O)NC1=O)NC(=O)[C@H](C)NC(=O)[C@H](CC(=O)O)NC2=O (stereo partly drawn) [I-400, Ac-PL3-Asp-Ala-B5-Asp-His-Ala-Ala-Phe-Gln-SeN-3FF-BztA-Gln-NH2] | – | – | – | 1.92 | 3.59
CC(=O)N1CCC[C@]12CC=CCCCC1(CCCC=CCCCCCC[C@@](C)(C(=O)N[C@@H](Cc3cccc(F)c3)C(=O)N[C@@H](Cc3csc4ccccc34)C(=O)N[C@@H](CCC(N)=O)C(N)=O)NC(=O)[C@H](CCC(N)=O)NC(=O)[C@H](Cc3cccs3)NC(=O)[C@H](C)NC(=O)[C@H](C)NC(=O)[C@H](CCC(=O)O)NC(=O)[C@H](CC(=O)O)NC1=O)NC(=O)[C@H](C)NC(=O)[C@H](CC(=O)O)NC2=O (stereo partly drawn) [I-401, Ac-PL3-Asp-Ala-B5-Asp-Glu-Ala-Ala-2Thi-Gln-S8-3FF-BztA-Gln-NH2] | – | – | – | 2.28 | 0.134
CC(=O)N1CCC[C@]12CC=CCCCC1(CCCC=CCCCCCC[C@@](C)(C(=O)N[C@@H](Cc3cccc(F)c3)C(=O)N[C@@H](Cc3csc4ccccc34)C(=O)N[C@@H](CCC(N)=O)C(N)=O)NC(=O)[C@H](C(C)C)NC(=O)[C@H](Cc3ccccc3)NC(=O)[C@H](C)NC(=O)[C@H](C)NC(=O)[C@H](Cc3cccs3)NC(=O)[C@H](CC(=O)O)NC1=O)NC(=O)[C@H](C)NC(=O)[C@H](CC(=O)O)NC2=O (stereo partly drawn) [I-402, Ac-PL3-Asp-Ala-B5-Asp-2Thi-Ala-Ala-Phe-Val-S8-3FF-BztA-Gln-NH2] | – | – | – | 3.39 | 5
